According to patent US11197811B2, “Teeth whitening methods, visually perceptible signals and compositions therefor” (Colgate-Palmolive Company, priority 2012, dated 2021):
Blank lines part the entries; values can stand above or below the compound they belong to.

Legend:
[1] = Clarity of gel phase by UV/VIS absorbance; assay type: physicochemical; details: original oral gel, 0.5% (w/w) zinc level; for Absorbance: 610 nm, DI water blank
Procedure: Four 500.0 g gel phase batches which contain NaF (control), ZLC, ZnCl2 and ZnO as active ingredient are formulated with the ingredients shown in Table 8. The clarity of samples with different actives is compared, and the precipitation characteristic of ZLC gel phase by dilution is evaluated. The concentration of zinc ions in ZLC solution is 25300 ppm obtained by ICP, which in terms gives approximately 17% weight of ZLC actives in the solution. Zinc ion concentration in the following batches are all prepared at 0.5% (w/w) zinc level.
(§1) Lambda 25 UV/VIS Spectrometer (PerkinElmer) is used to obtain absorbance information for all samples in order to compare the clarity of gel phase between different actives. Absorbance is a logarithmic measure of the amount of light that is absorbed when passing through a substance. Since the particles in the gel absorb light, the more particles existing in solution, the more light absorbed by the gel. Thus, a small number of absorbance of a gel indicates a higher clarity. The absorbance is corrected by using deionized (DI) water as the blank solution under the light source wavelength of 610 nm.

[2] = Dilution experiment of gel phase batches (absorbance); assay type: physicochemical; details: for Absorbance, 2 fold dilution: gel phase batch diluted 2 fold; for Absorbance, 4 fold dilution: gel phase batch diluted 4 fold; for Absorbance, 8 fold dilution: gel phase batch diluted 8 fold; for Absorbance, 16 fold dilution: gel phase batch diluted 16 fold; for Absorbance, 32 fold dilution: gel phase batch diluted 32 fold
From the text: as §1
(§2) Dilution experiment: All original gel phase batch are diluted into 2 fold, 4 fold, 8 fold, 16 fold and 32 fold. […] This observation confirms the formation of precipitate when ZLC gel is being diluted by water. The pHs of 2 fold, 4 fold, 8 fold, 16 fold, and 32 fold diluted ZLC gel solution are 7.71, 7.91, 8.03, 8.12, and 8.14, respectively.

[3] = pH of gel phase batches; assay type: physicochemical; details: original oral gel batch
[4] = pH of neat and final diluted ZLC solutions; assay type: physicochemical
Procedure: (§3) A neat solution of ZLC is prepared by 1), reacting 0.5 mole of ZnO powder with 1 mole of lysine HCl in 1 liter of water at room temperature for about 2 hours, and 2) collecting the supernatant through centrifugation followed by filtration using a 0.45 micron membrane. The neat solution has a zinc concentration of 2.39% by weight, and a pH of about 7.03.
(§4) Dilution experiment is conducted by mixing the neat solution with deionized water. The neat solution is diluted by 2×, 4×, 6×, 7×, 8×, 10×, 12×, 16×, 20×, 24×, 28×, and 32×, corresponding to initial zinc concentrations of 1.20%, 0.598%, 0.398%, 0.341%, 0.299%, 0.239%, 0.199%, 0.149%, 0.120%, 0.0996%, 0.0854%, 0.0747%, by weight, respectively. The diluted samples are kept at 37° C., and the rates at which flocculation/precipitation occurred are monitored.
pH values of final diluted samples are suitable for oral care applications. […] These pH values are well within the range of 5.5 to 10, which defines the suitable range for oral care formulations.

[5] = pH of diluted ZLC gel solution; assay type: physicochemical
Procedure: as §2

[6] = Repeated 10 minute treatments of dentine section, confocal imaging; design: species or system human; details: 10 minutes at 37° C.; for surface deposition on dentine: 0.0747% zinc
Procedure: (§5) The deposition/occlusion assay is conducted using human dentine slices and the neat solution of Example 3. The dentine slices are prepared by cutting human tooth into thin dentine sections of about 800 microns in thickness, designating a test side, sanding said test side using a sandpaper of about 600 grit, polishing said test side using a Buehler polishing cloth and 5 micron Buehler aluminum oxide, acid-etching said dentine section in 1% (by weight) citric acid solution for about 20 seconds, sonicating said dentine section for 10 minutes, and storing said dentine section in phosphate buffered saline (PBS, pH 7.4, Gibco Cat. No. 10010).
A new dentine sections, as prepared following the procedure in Example 4, is repeatedly treated with ZLC dilutions with initial zinc concentration of 0.0747% by weight. […] The dentine section is examined under the confocal microscope after each treatment.

[7] = Dilution of neat ZLC solution, flocculation/precipitation monitored; assay type: physicochemical; details: 37° C.
Procedure: Various dilutions of ZLC are prepared to evaluate its efficiency in producing visible precipitates and/or flocculation, which can be delivered onto a dental surface (dentine and/or enamel) for whitening benefits.
as §3, §4

[8] = Deposition/occlusion assay, confocal imaging; design: species or system human; details: 0.149% zinc, 1 hour at 37° C.
Procedure: as §5
(§6) For treatment, the neat solution is diluted 16-fold with water, yielding a treatment solution with initial zinc concentration of about 0.149% by weight. The dentine section is immersed in the treatment solution for 1 hour at 37° C. The treated dentine section is then removed from the treatment solution, and rinsed 4 times, each time with 1 mL of PBS. The dentine section is then dried using a paper-based tissue and examined under confocal microscope in both XYZ and XYZ modes. Subsequent treatments are conducted in the same manner.
Progressive deposition and occlusion can be observed via confocal imaging. […] The surface deposits can be 10 microns or more in thickness. […] The surface deposits can be 25 microns or more in thickness.

[9] = Spectrophotometric analysis of whitening (CIELAB color reading); design: species or system human; details: dentine section of Example 4 after third treatment
Procedure: as §6
Spectrophotometric analysis proves the whitening efficacy of the ZLC treatment. After the third treatment, the dentine section of Example 4 is dried and examined under a Spectroshade™ spectrophotometer (Handy Dental Type 71,3000). The treated dentinal area is included and the enamel rim is excluded from the examination and subsequent data processing. The CIELAB color reading is L*=86.6, a*=−1.7, and b*=1.5. A similarly prepared dentine section without treatment yielded a reading of L*=72.5, a*=−1.9, and b*=10.3. It is commonly understood that, by definition, L*=0 means black and L*=100 indicates diffuse white, negative a* value indicates green while positive values indicate magenta, and negative b* values indicate blue and positive values indicate yellow.

- Absorbance [1]: 2.4626
- Absorbance, 2 fold dilution [2]: 2.4630
- Absorbance, 4 fold dilution [2]: 2.5340
- Absorbance, 8 fold dilution [2]: 2.1883
- Absorbance, 16 fold dilution [2]: 1.8638
- Absorbance, 32 fold dilution [2]: 1.0492
- pH [3]: 8.30
Compound: [O-2].[Zn+2] [ZnO]
- appearance of gel phase [1]: not dissolved and is suspended in gel phase

- appearance of gel phase [1]: appears cloudy
- Absorbance [1]: 0.9204
- Absorbance, 2 fold dilution [2]: 0.7315
- Absorbance, 4 fold dilution [2]: 0.3700
- Absorbance, 8 fold dilution [2]: 0.1701
- Absorbance, 16 fold dilution [2]: 0.0570
- Absorbance, 32 fold dilution [2]: 0.0280
- pH [3]: 5.25
Compound: [Cl-].[Cl-].[Zn+2] [ZnCl2]

- Absorbance [1]: 0.0344
- Absorbance, 2 fold dilution [2]: 0.0106
- Absorbance, 4 fold dilution [2]: 0.0104
- Absorbance, 8 fold dilution [2]: 0.0107
- Absorbance, 16 fold dilution [2]: 0.0075
- Absorbance, 32 fold dilution [2]: 0.0137
- pH [3]: 7.63
Compound: [F-].[Na+] [NaF]

- final pH value of diluted sample ([4]; initial zinc concentration 0.0747%): 7.99
- final pH value of diluted sample ([4]; initial zinc concentration 0.0854%): 8.13
- final pH value of diluted sample ([4]; initial zinc concentration 0.0996%): 8.11
- final pH value of diluted sample ([4]; initial zinc concentration 0.120%): 7.97
- final pH value of diluted sample ([4]; initial zinc concentration 0.149%): 7.99
- final pH value of diluted sample ([4]; initial zinc concentration 0.199 wt %): 6.80
- final pH value of diluted sample ([4]; initial zinc concentration 0.239%): 6.70
- pH of neat solution ([4]; neat solution, zinc concentration 2.39% by weight): about 7.03
- pH of diluted ZLC gel solution ([5]; 2 fold diluted): 7.71
- pH of diluted ZLC gel solution ([5]; 4 fold diluted): 7.91
- pH of diluted ZLC gel solution ([5]; 8 fold diluted): 8.03
- pH of diluted ZLC gel solution ([5]; 16 fold diluted): 8.12
- pH of diluted ZLC gel solution ([5]; 32 fold diluted): 8.14
- precipitation by naked eyes during treatment ([6]; initial zinc 0.0747%): no precipitation
- appearance of gel phase [1]: forms a homogenous solution
- Absorbance [1]: 0.1765
- time to some visible flocculation from mixing with water ([7]; initial zinc concentrations 0.149% and 0.199%): ≤ 30 min
- flocculation observed ([7]; one and a half hours after mixing, initial zinc between 0.0747% and 0.239%): visible flocculation
- flocculation observed ([7]; one hour from mixing, initial zinc between 0.0854% and 0.239%): visible flocculation
- relative amount of precipitates ([7]; total of 19 hours, initial zinc between 0.0747% and 0.239%): the most precipitates
- flocculation observed ([7]; two hours after mixing, initial zinc 0.299%): presence of flocculation
- Absorbance, 2 fold dilution [2]: 0.1436
- Absorbance, 4 fold dilution [2]: 0.1887
- Absorbance, 8 fold dilution [2]: 0.1860
- Absorbance, 16 fold dilution [2]: 0.1336
- Absorbance, 32 fold dilution [2]: 0.2998
- pH [3]: 7.37
Compound: [Zn(C6H14N2O2)2Cl]^+Cl^− [ZLC]
- surface deposition on dentine ([6]; after 4 consecutive treatments): significant surface deposition
- surface deposition on dentine ([6]; after 12 consecutive treatments): complete surface coverage
- flocculation and/or precipitation observed ([7]; total of 19 hours, all samples except initial zinc 1.20%): flocculation and/or precipitation can be observed
- deposition and occlusion on dentine surface ([8]; first treatment): noticeable deposition
- deposition and occlusion on dentine surface ([8]; second treatment): complete surface coverage, including blocking of substantially all tubule openings
- thickness of surface deposits ([8]; second treatment): ≥ 10 microns
- deposition and occlusion on dentine surface ([8]; third treatment): complete surface coverage and complete blocking of tubule openings
- thickness of surface deposits ([8]; third treatment): ≥ 25 microns
- CIELAB color reading L* ([9]; untreated section L*=72.5): 86.6
- CIELAB color reading a* ([9]; untreated section a*=−1.9): −1.7
- CIELAB color reading b* ([9]; untreated section b*=10.3): 1.5
